According to patent US20020052295A1, “Diacyl derivatives of propylene diamine having herbicidal activity” (priority 1999, published 2002):

How the values were obtained:
BRAPP = test: Pre-emergence herbicidal activity on BRAPP (broadleaf signalgrass); assay type: in vivo, Brachiaria platyphylla
How it was run: (§1)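 Values are GR80 (rate giving 80% inhibition), with rates up to typically 1000 g/ha. Inhibition is visually recorded against untreated pots roughly two weeks after sowing and surface treatment in a 30/21 °C day/night greenhouse.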

CHEAL = test: Pre-emergence herbicidal activity on CHEAL (common lambsquarters); assay type: in vivo, Chenopodium album
How it was run: as §1

SOLNI = test: Pre-emergence herbicidal activity on SOLNI (black nightshade); assay type: in vivo, Solanum nigrum
How it was run: as §1

CIRAR = test: Pre-emergence herbicidal activity on CIRAR (canada thistle, seedling); assay type: in vivo, Cirsium arvense
How it was run: as §1

CONAR = test: Pre-emergence herbicidal activity on CONAR (field bindweed); assay type: in vivo, Convolvulus arvensis
How it was run: as §1

ABUTH = test: Pre-emergence herbicidal activity on ABUTH (velvetleaf); assay type: in vivo, Abutilon theophrasti
How it was run: as §1

[1] = test system: monocotyledonous and dicotyledonous annual plant species; test: Greenhouse pre-emergence test, all species of the test taken together; assay type: in vivo
Excerpt: All such uses, and the biological activity enabling such uses, are embraced by the term “herbicidal” herein. […] Where herbicidal activity was evident but 80% inhibition was not achieved at the highest rate tested (typically 1000 g/ha), an asterisk (*) is shown in the following tables. Herbicidal activity evident in the form of symptoms of phytotoxicity, in the absence of at least 80% inhibition at any rate, is indicated in the tables by “phyto”. A blank cell in the following tables indicates no herbicidal or phytotoxic response at any rate tested.
(§2) The pre-emergence tests were conducted by the following procedure. Topsoil was sieved to pass through a 1.27 cm screen. Fertilizer was added to the topsoil and the mixture was then sterilized by heating. The topsoil mixture was placed in a pot and compacted to a depth of 1.0 to 1.25 cm from the top of the pot. Seeds of each of several monocotyledonous and dicotyledonous annual plant species were placed on top of the soil. Additional soil was subsequently placed over the seeds to level-fill the pot. A known amount of each test compound dissolved or suspended in an appropriate organic solvent was diluted with a 50:50 mix of acetone and water and applied to the surface of the soil. After treatment the plants were placed in a greenhouse with a 30/21° C. day/night temperature regime where they received 0.64 cm of overhead irrigation. All subsequent watering consisted of a light overhead mist and/or subirrigation as needed for germination and growth.
Pre-emergence herbicidal activity of the compound of Example 5, a racemic mixture of R- and S-enantiomers of N,N′-(1,2-propanediylbis)-3-(trifluoromethyl) benzamide, was compared with that of the individual R- and S-enantiomers, the compounds of Examples 5a and 5b respectively. The procedure was exactly as described above. Rates tested were 1000, 650, 300, 200, 100, 65, 30 and 10 g/ha.
In a greenhouse pre-emergence test conducted according to the procedure described hereinabove, R—N,N′-(1,2-propanediylbis)-3-(trifluoromethyl)benzamide (the compound of Example 5a) was applied at 200 g/ha and acetochlor was applied at 100 g/ha, both individually and in combination.
In the same greenhouse pre-emergence test, R-2-fluoro-3-trifluoromethyl-N-[1-methyl-2-(3-trifluoromethyl)phenylcarbonylamino]ethylbenzamide (the compound of Example 13) was applied at 100 g/ha and acetochlor was applied at 100 g/ha, both individually and in combination.

DATST = test: Pre-emergence herbicidal activity on DATST (jimsonweed); assay type: in vivo, Datura stramonium
How it was run: as §1

AMARE = test: Pre-emergence herbicidal activity on AMARE (redroot pigweed); assay type: in vivo, Amaranthus retroflexus
How it was run: as §1

POROL = test: Pre-emergence herbicidal activity on POROL (common purslane); assay type: in vivo, Portulaca oleracea
How it was run: as §1

PANDI = test: Pre-emergence herbicidal activity on PANDI (fall panicum); assay type: in vivo, Panicum dichotomiflorum
How it was run: as §1

PANMI = test: Pre-emergence herbicidal activity on PANMI (wild proso millet); assay type: in vivo, Panicum miliaceum
How it was run: as §1

DIGSA = test: Pre-emergence herbicidal activity on DIGSA (large crabgrass); assay type: in vivo, Digitaria sanguinalis
How it was run: as §1

SORHA = test: Pre-emergence herbicidal activity on SORHA (johnsongrass, seedling); assay type: in vivo, Sorghum halepense
How it was run: as §1

SETFA = test: Pre-emergence herbicidal activity on SETFA (giant foxtail); assay type: in vivo, Setaria faberi
How it was run: as §1

ECHCG = test: Pre-emergence herbicidal activity on ECHCG (barnyardgrass); assay type: in vivo, Echinochloa crus-galli; conditions: racemic mixture vs enantiomers test; rates tested 1000, 650, 300, 200, 100, 65, 30 and 10 g/ha; lowest rate with 80% or greater inhibition
How it was run: as §1

SORVU = test: Pre-emergence herbicidal activity on SORVU (shattercane); assay type: in vivo, Sorghum vulgare; conditions: racemic mixture vs enantiomers test; rates tested 1000, 650, 300, 200, 100, 65, 30 and 10 g/ha; lowest rate with 80% or greater inhibition
Excerpt: All such uses, and the biological activity enabling such uses, are embraced by the term “herbicidal” herein. Tables 15 and 16 summarize results of tests conducted as described below to determine the pre-emergence herbicidal activity, in the form of a GR80 value, of illustrative compounds of this invention. […] Where herbicidal activity was evident but 80% inhibition was not achieved at the highest rate tested (typically 1000 g/ha), an asterisk (*) is shown in the following tables. Herbicidal activity evident in the form of symptoms of phytotoxicity, in the absence of at least 80% inhibition at any rate, is indicated in the tables by “phyto”. A blank cell in the following tables indicates no herbicidal or phytotoxic response at any rate tested.
as §2
Approximately 14 days after planting and treating, the plants were observed and herbicidal efficacy recorded as percent inhibition by comparison with untreated plants.
The plant species usually regarded as weeds which were utilized in the tests are identified in the tables below according to the following legend, in which “d” indicates a dicotyledonous species and “m” a monocotyledonous species. All monocotyledonous species included in the tests herein are grasses.

[2] = applied alone at 100 g/ha, greenhouse
[3] = pre-emergence application, acetochlor 100 g/ha alone
[4] = racemic mixture vs enantiomers test, rates tested 1000, 650, 300, 200, 100, 65, 30 and 10 g/ha, lowest rate with 80% or greater inhibition

CCOCN(C(=O)CCl)c1c(C)cccc1CC [Acetochlor, acetochlor, reference compound]
23%: Percent control by pre-emergence application, CONAR (CONAR; [2]) | Percent control CONAR (CONAR; [3])
76%: Percent control by pre-emergence application, BRAPP (BRAPP; [2]) | Percent control BRAPP (BRAPP; [3])
83%: Percent control by pre-emergence application, PANMI (PANMI; [2]) | Percent control PANMI (PANMI; [3]) | Percent control by pre-emergence application, SORHA (SORHA; [2]) | Percent control SORHA (SORHA; [3])
33%: Percent control by pre-emergence application, DATST (DATST; [2]) | Percent control DATST (DATST; [3])
7: number of the 14 species showing >85% control ([1]; acetochlor alone at 100 g/ha)
0%: Percent control by pre-emergence application, ABUTH (ABUTH; [2]) | Percent control ABUTH (ABUTH; [3])
100%: Percent control by pre-emergence application, CHEAL (CHEAL; [2]) | Percent control CHEAL (CHEAL; [3]) | Percent control by pre-emergence application, CIRAR (CIRAR; [2]) | Percent control CIRAR (CIRAR; [3]) | Percent control by pre-emergence application, AMARE (AMARE; [2]) | Percent control AMARE (AMARE; [3]) | Percent control by pre-emergence application, POROL (POROL; [2]) | Percent control POROL (POROL; [3]) | Percent control by pre-emergence application, PANDI (PANDI; [2]) | Percent control PANDI (PANDI; [3]) | Percent control by pre-emergence application, DIGSA (DIGSA; [2]) | Percent control DIGSA (DIGSA; [3]) | Percent control by pre-emergence application, SETFA (SETFA; [2]) | Percent control SETFA (SETFA; [3])
75%: Percent control by pre-emergence application, SOLNI (SOLNI; [2]) | Percent control SOLNI (SOLNI; [3])

CC(CNC(=O)c1cccc(C(F)(F)F)c1)NC(=O)c1cccc(C(F)(F)F)c1 (stereo not shown) [Example 5b]
[empty]: Pre-emergence activity (GR80) BRAPP (BRAPP; [4]) | Pre-emergence activity (GR80) CHEAL (CHEAL; [4]) | Pre-emergence activity (GR80) SOLNI (SOLNI; [4]) | Pre-emergence activity (GR80) CIRAR (CIRAR; [4]) | Pre-emergence activity (GR80) CONAR (CONAR; [4]) | Pre-emergence activity (GR80) ECHCG (ECHCG) | Pre-emergence activity (GR80) ABUTH (ABUTH; [4]) | Pre-emergence activity (GR80) DATST (DATST; [4]) | Pre-emergence activity (GR80) AMARE (AMARE; [4]) | Pre-emergence activity (GR80) PORAL (POROL; [4]) | Pre-emergence activity (GR80) PANDI (PANDI; [4]) | Pre-emergence activity (GR80) SORVU (SORVU) | Pre-emergence activity (GR80) PANMI (PANMI; [4]) | Pre-emergence activity (GR80) DIGSA (DIGSA; [4]) | Pre-emergence activity (GR80) SORHA (SORHA; [4]) | Pre-emergence activity (GR80) SETFA (SETFA; [4])
completely inactive: pre-emergence herbicidal activity (in words) ([1]; rates 1000 to 10 g/ha, all species of Tables 19 and 20)
